From paper PMC10382584, “Macrocyclization of linear molecules by deep learning to facilitate macrocyclic drug candidates discovery” (Nature Communications, 2023)
“And” between values parts separate entries of the source, which are not always exact repeats. Equal entries are not always repeated. Where two headings read alike, the source gives them in different places.

Tests used:
SET-2 cells = test: Cell proliferation assay (CCK-8), SET-2 cells; assay type: cell-based, human; conditions: for Inhibition (%): single wells, replicates 1 and 2
Method: (§1) The human erythroid leukemia (HEL 92.1.7) cells were purchased from the American Type Culture Collection (ATCC, TIB-180), and the human megakaryoblastic (SET2) cells were obtained from German Collection of Microorganisms and Cell Cultures (DSMZ, ACC 608). The anti-proliferative activities of compounds were evaluated using WST-8 cell counting kit-8 (Elabscience). HEL and SET-2 cells were seeded at 5000 cells/well in 70 μL RPMI-1640 medium (Hyclon) with 10% FBS (Gibco) to the 96-well plate and incubated overnight at 37 °C with 5% CO2. The compounds were serially diluted in RPMI-1640 medium, and cells were treated separately with 30 μL various concentrations of compounds for 72 h. The final DMSO concentration in the culture wells was 0.1%, which had no effect on the cell viability. Finally, 10 μL of CCK-8 solution was added into the wells. 4 h later, the absorbance values at 450 nm were recorded. IC50 values were determined using GraphPad Prism v8.3.0, and three parallel experiments were performed.

HEL cells = test: Cell proliferation assay (CCK-8), HEL cells; assay type: cell-based, human; conditions: for Inhibition (%): single wells, replicates 1 and 2
Method: as §1

JAK2 = molecular target: T1, JAK2 (Homo sapiens, UniProt O60674); test: JAK2 enzyme assay (Z'-LYTE kinase assay kit); assay type: biochemical
T1 construct: 0.05–0.42 ng JAK2, 2 μM peptide substrate (Tyr06)
Method: JAK kinase activity assays were performed using Z’-LYTETM kinase assay kit (Life Technologies, pv4122). […] The mixture was added into the 384-well microplate, shaken gently, and then incubated at room temperature for 1 h. Subsequently, 5 μL development solution was added to the well for incubating another 1 h. Finally, 5 μL stop reagent was added to stop the reaction. […] IC50 values were calculated using GraphPad Prism v8.0.3, and three parallel experiments were performed.

In vivo PK study in mice = conditions: mice
Method: The mice were separately administered to a group of three mice per time point for intravenous (5 mg/kg) or oral administration (5 mg/kg). […] Then the samples were separated by centrifugation and analyzed by LC-MS/MS (XEVO TQ-S) to determine the plasma drug concentrations. The PK parameters were calculated using the noncompartment model with Phoenix WinNonLin v8.0. The animal experimental procedures were approved by the Medicine Research Ethics Committee of Hangzhou Leading Pharmatech Co., Ltd.

[1] = tested on: JAK2-STAT signaling pathways in HEL cells; test: Western blot analysis of JAK2-STAT signaling in HEL cells; assay type: cell-based, human; conditions: 0.3-10 μM, 0.5 h
Method: HEL cells were added into six-well plates (2 × 10^6 cells/well) and then put into the incubator (37 °C, 5% CO2). After 24 h, the tested compounds were diluted in RPMI-1640 medium (final DMSO concentration = 0.1%) with different concentrations (0 μM, 0.3 μM, 1 μM, 3 μM, and 10 μM) was added separately into the wells, and incubated for another 0.5 h, then cells were collected and lysed. Proteins from each sample were isolated by SDS-PAGE and transferred to PVDF membrane. The membranes were blocked in 5% milk (TBST) for 1 h at room temperature, and subsequently incubated with the indicated primary antibody in blocking buffer overnight at 4 °C. Primary antibodies were used as follows: p-Y1007/8-JAK2 (#3771, CST, 1:1000), p-Y221-JAK2 (#11150, SAB, 1:500), p-Y705-STAT3 (#11045, SAB, 1:1000), p-Y694-STAT5 (#13386, SAB, 1:2000), STAT3 (10253-2-AP, Proteintech, 1:4000), STAT5 (12071-1-AP, Proteintech, 1:4000), JAK2 (E-AB-70193, Elabscience, 1:2000) and β-Actin (E-AB-20034, Elabscience, 1:10000). Then the membranes were washed with TBST (3 × 5 min), incubated with HRP-conjugated secondary antibody for 1 h at room temperature, washed again, and then exposed by chemiluminescence method using the enhanced ECL immunoblotting system (Tanon, Shanghai, China). All the experiments were repeated in triplicate. Blot bands were quantified by densitometry using Image J software v1.51.
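For AUCinf in this document: mice dosed intravenously or orally, three animals per time point, plasma drug levels quantified by LC-MS/MS, PK parameters derived by noncompartmental analysis in Phoenix WinNonLin.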
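For Cmax in this document: mice dosed intravenously or orally, three animals per time point, plasma drug levels quantified by LC-MS/MS, PK parameters derived by noncompartmental analysis in Phoenix WinNonLin.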
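For T1/2 in this document: mice dosed intravenously or orally, three animals per time point, plasma drug levels quantified by LC-MS/MS, PK parameters derived by noncompartmental analysis in Phoenix WinNonLin.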
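For Tmax in this document: mice dosed intravenously or orally, three animals per time point, plasma drug levels quantified by LC-MS/MS, PK parameters derived by noncompartmental analysis in Phoenix WinNonLin.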

T1 sequence (O60674 whole entry): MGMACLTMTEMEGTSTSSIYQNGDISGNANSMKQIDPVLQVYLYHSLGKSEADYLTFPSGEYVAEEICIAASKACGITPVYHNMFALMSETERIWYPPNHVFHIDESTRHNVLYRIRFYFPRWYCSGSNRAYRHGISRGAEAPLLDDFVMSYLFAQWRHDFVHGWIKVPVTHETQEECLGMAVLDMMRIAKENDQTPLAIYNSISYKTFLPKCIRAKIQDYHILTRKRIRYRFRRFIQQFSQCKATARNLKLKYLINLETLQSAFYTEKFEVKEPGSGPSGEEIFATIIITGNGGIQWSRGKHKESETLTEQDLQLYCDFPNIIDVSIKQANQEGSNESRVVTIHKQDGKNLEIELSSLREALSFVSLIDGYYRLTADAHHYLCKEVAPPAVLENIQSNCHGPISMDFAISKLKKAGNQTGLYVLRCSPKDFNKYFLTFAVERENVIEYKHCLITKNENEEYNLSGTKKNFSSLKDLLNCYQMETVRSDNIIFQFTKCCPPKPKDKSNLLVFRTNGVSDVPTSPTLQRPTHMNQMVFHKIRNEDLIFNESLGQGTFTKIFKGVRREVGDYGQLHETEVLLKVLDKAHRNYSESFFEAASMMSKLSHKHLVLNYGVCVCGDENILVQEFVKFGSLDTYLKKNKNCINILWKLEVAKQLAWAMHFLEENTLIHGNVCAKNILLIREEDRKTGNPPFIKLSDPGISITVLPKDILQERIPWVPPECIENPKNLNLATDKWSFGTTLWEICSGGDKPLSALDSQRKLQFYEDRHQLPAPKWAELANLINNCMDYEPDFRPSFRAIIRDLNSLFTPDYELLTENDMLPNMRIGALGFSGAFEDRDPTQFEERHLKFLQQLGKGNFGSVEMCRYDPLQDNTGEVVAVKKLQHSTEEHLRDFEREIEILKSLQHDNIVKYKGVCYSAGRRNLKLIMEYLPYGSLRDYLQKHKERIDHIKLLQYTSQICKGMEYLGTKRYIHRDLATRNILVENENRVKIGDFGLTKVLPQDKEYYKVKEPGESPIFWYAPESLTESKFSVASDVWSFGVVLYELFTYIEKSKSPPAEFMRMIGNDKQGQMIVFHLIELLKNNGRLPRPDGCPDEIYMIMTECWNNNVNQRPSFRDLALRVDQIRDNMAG

In the case of `Cc1cnc2nc1Nc1cccc(c1)COCc1cc(ccc1OCCN1CCCC1)N2` [Compound 1], the “Inhibition (%)” value (SET-2 cells; SET-2 cell lines, 0.0977 μM) is reported as 5.3742% and 3.7022% and -1.2341% and 4.261% and 8.580% and 6.307%, the “Inhibition (%)” value (SET-2 cells; SET-2 cell lines, 0.1953 μM) is reported as 7.5239% and 7.2850% and 0.8360% and 9.148% and 16.307% and 12.784% and the “Inhibition (%)” value (SET-2 cells; SET-2 cell lines, 0.3906 μM) is reported as 10.3105% and 11.0271% and 3.0653% and 12.898% and 19.375% and 18.352%. For the same molecule, the “Inhibition (%)” value (SET-2 cells; SET-2 cell lines, 0.7813 μM) was 17.3965% and 16.7596% and 8.4793% and 17.557% and 26.420% and 24.261%, the “Inhibition (%)” value (SET-2 cells; SET-2 cell lines, 1.5625 μM) was 26.9506% and 28.1449% and 22.3328% and 35.966% and 41.989% and 43.580% and the “Inhibition (%)” value (SET-2 cells; SET-2 cell lines, 3.1250 μM, 3.125 µM) was 60.6290% and 56.0111% and 56.4092% and 69.034% and 74.716% and 74.943%. The “Inhibition (%)” value (SET-2 cells; SET-2 cell lines, 6.2500 μM, 6.25 µM) was 97.5717% and 97.1736% and 97.3328% and 98.920% and 99.830% and 100.398%, the “Inhibition (%)” value (SET-2 cells; SET-2 cell lines, 12.5000 μM, 12.5 µM) was 96.8551% and 96.6959% and 97.3328% and 99.716% and 100.170% and 100.398% and the IC50 (SET-2 cells; SET-2 cell lines, mean of 2 replicates, read-out: IC50/μM mean, cellular antiproliferative activity) was 1.64 µM. The IC50 (SET-2 cells; SET-2 cell lines, mean ± sd of 2 replicates, read-out: IC50/μM mean ± sd, cellular antiproliferative activity) was 1.64 ± 0.03 µM, the IC50 (SET-2 cells; SET-2 cell lines, single-replicate fits, read-out: IC50/μM (individual replicates), cellular antiproliferative activity) was 1.62 µM and 1.66 µM and the IC50 (SET-2 cells; SET-2 cells, 72 h, mean ± SD, read-out: Cellular Antiproliferative Activity (IC50) SET-2) was 1.64 ± 0.03 µM. The “Inhibition (%)” value (HEL cells; HEL cell lines, 0.0977 μM) was 2.2777% and 0.5143% and -1.6899% and 3.096% and 4.826% and 5.277%, the “Inhibition (%)” value (HEL cells; HEL cell lines, 0.1953 μM) was 5.8046% and 4.8494% and 8.1558% and 6.255% and 8.812% and 5.578% and the “Inhibition (%)” value (HEL cells; HEL cell lines, 0.3906 μM) was 18.9566% and 20.0588% and 8.5966% and 7.458% and 10.165% and 8.511%. The “Inhibition (%)” value (HEL cells; HEL cell lines, 0.7813 μM) was 26.0838% and 31.3005% and 30.4188% and 11.594% and 18.814% and 14.151%, the “Inhibition (%)” value (HEL cells; HEL cell lines, 1.5625 μM) was 34.0926% and 44.3057% and 45.4813% and 25.056% and 31.900% and 30.547% and the “Inhibition (%)” value (HEL cells; HEL cell lines, 3.1250 μM, 3.125 µM) was 46.4364% and 51.6532% and 53.8575% and 56.869% and 60.404% and 60.629%. The “Inhibition (%)” value (HEL cells; HEL cell lines, 6.2500 μM, 6.25 µM) was 64.2910% and 65.8339% and 68.7730% and 85.974% and 88.155% and 87.628%, the “Inhibition (%)” value (HEL cells; HEL cell lines, 12.5000 μM, 12.5 µM) was 80.4555% and 78.6187% and 81.4842% and 94.397% and 94.999% and 94.924% and the IC50 (HEL cells; HEL cell lines, mean of 2 replicates, read-out: IC50/μM mean, cellular antiproliferative activity) was 2.41 µM. For the same molecule, the IC50 (HEL cells; HEL cell lines, mean ± sd of 2 replicates, read-out: IC50/μM mean ± sd, cellular antiproliferative activity) was 2.41 ± 0.2 µM, the IC50 (HEL cells; HEL cell lines, single-replicate fits, read-out: IC50/μM (individual replicates), cellular antiproliferative activity) was 2.27 µM and 2.55 µM and the IC50 (HEL cells; HEL cells, 72 h, mean ± SD, read-out: Cellular Antiproliferative Activity (IC50) HEL) was 2.41 ± 0.2 µM. The IC50 (JAK2; JAK2, 25 μM ATP, mean ± SD, n = 3, read-out: Enzyme Inhibitory Activity (IC50)) was 0.07 µM, the IC50 (JAK2; JAK2 enzyme, mean of 3 replicates, read-out: IC50/μM mean, enzyme inhibitory activity) was 0.07 µM and the IC50 (JAK2; JAK2 enzyme, mean ± SD of 3 replicates, read-out: IC50/μM mean ± SD, enzyme inhibitory activity) was 0.07 ± 0.006 µM. The IC50 (JAK2; JAK2 enzyme, single-replicate fits (replicates 1-3), read-out: IC50/μM (individual replicates), enzyme inhibitory activity) was 0.072 µM and 0.064 µM and 0.075 µM, the AUCinf (In vivo PK study in mice; iv (5 mg/kg)) was 752.47 ng·h/mL and the Cmax (In vivo PK study in mice; iv (5 mg/kg)) was 76.57 ng/mL. For the same molecule, the T1/2 (In vivo PK study in mice; iv (5 mg/kg)) was 5.35 h, the Tmax (In vivo PK study in mice; iv (5 mg/kg)) was 4.00 h and the AUCinf (In vivo PK study in mice; po (5 mg/kg)) was 106.00 ng·h/mL. The Cmax (In vivo PK study in mice; po (5 mg/kg)) was 10.35 ng/mL, the T1/2 (In vivo PK study in mice; po (5 mg/kg)) was 4.47 h and the Tmax (In vivo PK study in mice; po (5 mg/kg)) was 6.00 h. For the same molecule, the “F (bioavailability)” value (In vivo PK study in mice; po (5 mg/kg) vs iv (5 mg/kg)) was 14.1%, the “activation of downstream signaling molecule STAT3 and STAT5” value [1] was “significantly inhibited” and the “phosphorylation of JAK2 at Y1007/8 site” value [1] was “increased”. For the same molecule, the “phosphorylation of JAK2 at Y221 site” value ([1]; dose-dependent) was “efficiently blocked”.
